± gives the expanded uncertainty stated by the source.
Columns and labels:
[1] = 101.33 kPa, Liquid
[2] = xn = mol fraction of the nth substance listed; conditions: 101 kPa, Fluid (supercritical or subcritical phases)
[3] = cn = amount concentration of the nth substance listed, in mol/dm3; conditions: 101 kPa, Liquid, Direct current cell with electrodes

CCn1cc[n+](C)c1.COCCOCCOS(=O)(=O)[O-] [1-ethyl-3-methylimidazolium 2-(2-methoxyethoxy) ethylsulfate]
[1]
Conditions	mass density [kg/m3]
303.2 K	1233.4 ± 3
308.2 K	1230 ± 2.9
313.2 K	1226.6 ± 2.9
318.2 K	1223.3 ± 2.9
323.2 K	1219.9 ± 2.9

CCn1cc[n+](C)c1.COCCOCCOS(=O)(=O)[O-] [1-ethyl-3-methylimidazolium 2-(2-methoxyethoxy) ethylsulfate] + O
Conditions	binary diffusion coefficient, 303.2 K [m2/s]	binary diffusion coefficient, 308.2 K [m2/s]	binary diffusion coefficient, 313.2 K [m2/s]	binary diffusion coefficient, 318.2 K [m2/s]	binary diffusion coefficient, 323.2 K [m2/s]	molar conductivity, 303.2 K [S·m2/mol]	molar conductivity, 308.2 K [S·m2/mol]	molar conductivity, 313.2 K [S·m2/mol]	molar conductivity, 318.2 K [S·m2/mol]	molar conductivity, 323.2 K [S·m2/mol]
[2], x2 = 0	9.95e-10	1.06e-09	1.27e-09	1.32e-09	1.51e-09	–	–	–	–	–
[3], c1 = 9e-10	–	–	–	–	–	0.0074 ± 0.0004	0.0081 ± 0.0005	0.009 ± 0.0005	0.0098 ± 0.0006	0.0107 ± 0.0006
[3], c1 = 3.9e-09	–	–	–	–	–	0.0067 ± 0.0004	0.0075 ± 0.0005	0.0082 ± 0.0005	0.0091 ± 0.0005	0.0097 ± 0.0006
[3], c1 = 1.06e-08	–	–	–	–	–	0.0062 ± 0.0004	0.007 ± 0.0004	0.0077 ± 0.0005	0.0084 ± 0.0005	0.0091 ± 0.0005
[3], c1 = 1.82e-08	–	–	–	–	–	0.006 ± 0.0004	0.0067 ± 0.0004	0.0074 ± 0.0004	0.0081 ± 0.0005	0.0088 ± 0.0005
[3], c1 = 2.57e-08	–	–	–	–	–	0.0059 ± 0.0004	0.0065 ± 0.0004	0.0072 ± 0.0004	0.0076 ± 0.0005	0.0083 ± 0.0005

CCn1cc[n+](C)c1.N#CN=C=[N-] [1-ethyl-3-methylimidazolium dicyanamide]
[1]
Conditions	mass density [kg/m3]
303.2 K	1105.8 ± 0.6
308.2 K	1102.6 ± 0.6
313.2 K	1099.4 ± 0.6
318.2 K	1096.2 ± 0.6
323.2 K	1093 ± 0.6

CCn1cc[n+](C)c1.N#CN=C=[N-] [1-ethyl-3-methylimidazolium dicyanamide] + O
Conditions	binary diffusion coefficient, 303.2 K [m2/s]	binary diffusion coefficient, 308.2 K [m2/s]	binary diffusion coefficient, 313.2 K [m2/s]	binary diffusion coefficient, 318.2 K [m2/s]	binary diffusion coefficient, 323.2 K [m2/s]	molar conductivity, 303.2 K [S·m2/mol]	molar conductivity, 308.2 K [S·m2/mol]	molar conductivity, 313.2 K [S·m2/mol]	molar conductivity, 318.2 K [S·m2/mol]	molar conductivity, 323.2 K [S·m2/mol]
[2], x1 = 0	1.25e-09	1.41e-09	1.54e-09	1.71e-09	1.85e-09	–	–	–	–	–
[3], c1 = 1.2e-09	–	–	–	–	–	0.0095 ± 0.0004	0.0103 ± 0.0004	0.011 ± 0.0004	0.0123 ± 0.0005	0.0133 ± 0.0005
[3], c1 = 6.6e-09	–	–	–	–	–	0.009 ± 0.0004	0.0098 ± 0.0004	0.0108 ± 0.0004	0.0118 ± 0.0005	0.0128 ± 0.0005
[3], c1 = 1.19e-08	–	–	–	–	–	0.0087 ± 0.0004	0.0095 ± 0.0004	0.0105 ± 0.0004	0.0113 ± 0.0005	0.0125 ± 0.0005
[3], c1 = 2.28e-08	–	–	–	–	–	0.0083 ± 0.0003	0.0092 ± 0.0004	0.01 ± 0.0004	0.0109 ± 0.0004	0.0119 ± 0.0005
[3], c1 = 4.15e-08	–	–	–	–	–	0.0079 ± 0.0003	0.0088 ± 0.0004	0.0095 ± 0.0004	0.0103 ± 0.0004	0.0114 ± 0.0005

CCOS(=O)(=O)[O-].CCn1cc[n+](C)c1 [1-ethyl-3-methylimidazolium ethyl sulfate]
[1]
Conditions	mass density [kg/m3]
303.2 K	1232.7 ± 1.7
308.2 K	1229.4 ± 1.7
313.2 K	1226.2 ± 1.6
318.2 K	1222.9 ± 1.6
323.2 K	1219.7 ± 1.6

CCOS(=O)(=O)[O-].CCn1cc[n+](C)c1 [1-ethyl-3-methylimidazolium ethyl sulfate] + O
Conditions	binary diffusion coefficient, 303.2 K [m2/s]	binary diffusion coefficient, 308.2 K [m2/s]	binary diffusion coefficient, 313.2 K [m2/s]	binary diffusion coefficient, 318.2 K [m2/s]	binary diffusion coefficient, 323.2 K [m2/s]	molar conductivity, 303.2 K [S·m2/mol]	molar conductivity, 308.2 K [S·m2/mol]	molar conductivity, 313.2 K [S·m2/mol]	molar conductivity, 318.2 K [S·m2/mol]	molar conductivity, 323.2 K [S·m2/mol]
[2], x1 = 0	1.04e-09	1.19e-09	1.4e-09	1.5e-09	1.64e-09	–	–	–	–	–
[3], c1 = 1.6e-09	–	–	–	–	–	0.008 ± 0.0003	0.0089 ± 0.0004	0.0097 ± 0.0004	0.0106 ± 0.0004	0.0116 ± 0.0005
[3], c1 = 4.6e-09	–	–	–	–	–	0.0076 ± 0.0003	0.0084 ± 0.0003	0.0092 ± 0.0004	0.0101 ± 0.0004	0.011 ± 0.0004
[3], c1 = 8.6e-09	–	–	–	–	–	0.0074 ± 0.0003	0.0081 ± 0.0003	0.0089 ± 0.0004	0.0097 ± 0.0004	0.0106 ± 0.0004
[3], c1 = 1.72e-08	–	–	–	–	–	0.0071 ± 0.0003	0.0079 ± 0.0003	0.0086 ± 0.0003	0.0095 ± 0.0004	0.0102 ± 0.0004
[3], c1 = 3.58e-08	–	–	–	–	–	0.0065 ± 0.0003	0.0073 ± 0.0003	0.0082 ± 0.0003	0.0091 ± 0.0004	0.0098 ± 0.0004

CCn1cc[n+](C)c1.F[B-](F)(F)F [1-ethyl-3-methylimidazolium tetrafluoroborate]
[1]
Conditions	mass density [kg/m3]
303.2 K	1278.7 ± 6.4
308.2 K	1275 ± 6.4
313.2 K	1271.4 ± 6.3
318.2 K	1267.8 ± 6.3
323.2 K	1264.2 ± 6.2

CCn1cc[n+](C)c1.F[B-](F)(F)F [1-ethyl-3-methylimidazolium tetrafluoroborate] + O
Conditions	binary diffusion coefficient, 303.2 K [m2/s]	binary diffusion coefficient, 308.2 K [m2/s]	binary diffusion coefficient, 313.2 K [m2/s]	binary diffusion coefficient, 318.2 K [m2/s]	binary diffusion coefficient, 323.2 K [m2/s]	molar conductivity, 303.2 K [S·m2/mol]	molar conductivity, 308.2 K [S·m2/mol]	molar conductivity, 313.2 K [S·m2/mol]	molar conductivity, 318.2 K [S·m2/mol]	molar conductivity, 323.2 K [S·m2/mol]
[2], x1 = 0	1.5e-09	1.57e-09	1.69e-09	1.88e-09	2.01e-09	–	–	–	–	–
[3], c1 = 1e-09	–	–	–	–	–	0.0119 ± 0.0005	0.013 ± 0.0005	0.0139 ± 0.0006	0.0149 ± 0.0006	0.0162 ± 0.0007
[3], c1 = 5.5e-09	–	–	–	–	–	0.0111 ± 0.0004	0.0121 ± 0.0005	0.0131 ± 0.0005	0.0142 ± 0.0006	0.0153 ± 0.0006
[3], c1 = 1.32e-08	–	–	–	–	–	0.0105 ± 0.0004	0.0116 ± 0.0005	0.0125 ± 0.0005	0.0136 ± 0.0005	0.0146 ± 0.0006
[3], c1 = 2.22e-08	–	–	–	–	–	0.0101 ± 0.0004	0.0111 ± 0.0004	0.012 ± 0.0005	0.013 ± 0.0005	0.014 ± 0.0006
[3], c1 = 4.15e-08	–	–	–	–	–	0.009 ± 0.0004	0.0099 ± 0.0004	0.0108 ± 0.0004	0.0117 ± 0.0005	0.0127 ± 0.0005

CCn1cc[n+](C)c1.O=S(=O)([O-])C(F)(F)F [1-ethyl-3-methylimidazolium trifluoromethanesulfonate]
[1]
Conditions	mass density [kg/m3]
303.2 K	1377.3 ± 4.4
308.2 K	1373.3 ± 4.4
313.2 K	1369.3 ± 4.4
318.2 K	1365.3 ± 4.3
323.2 K	1361.2 ± 4.3

CCn1cc[n+](C)c1.O=S(=O)([O-])C(F)(F)F [1-ethyl-3-methylimidazolium trifluoromethanesulfonate] + O
Conditions	binary diffusion coefficient, 303.2 K [m2/s]	binary diffusion coefficient, 308.2 K [m2/s]	binary diffusion coefficient, 313.2 K [m2/s]	binary diffusion coefficient, 318.2 K [m2/s]	binary diffusion coefficient, 323.2 K [m2/s]	molar conductivity, 303.2 K [S·m2/mol]	molar conductivity, 308.2 K [S·m2/mol]	molar conductivity, 313.2 K [S·m2/mol]	molar conductivity, 318.2 K [S·m2/mol]	molar conductivity, 323.2 K [S·m2/mol]
[2], x1 = 0	1.16e-09	1.27e-09	1.51e-09	1.66e-09	1.8e-09	–	–	–	–	–
[3], c1 = 1.2e-09	–	–	–	–	–	0.0083 ± 0.0003	0.0093 ± 0.0004	0.0101 ± 0.0004	0.011 ± 0.0004	0.012 ± 0.0005
[3], c1 = 3.8e-09	–	–	–	–	–	0.0079 ± 0.0003	0.0088 ± 0.0004	0.0097 ± 0.0004	0.0106 ± 0.0004	0.0114 ± 0.0005
[3], c1 = 8.7e-09	–	–	–	–	–	0.0077 ± 0.0003	0.0085 ± 0.0003	0.0093 ± 0.0004	0.0102 ± 0.0004	0.0111 ± 0.0004
[3], c1 = 1.86e-08	–	–	–	–	–	0.0073 ± 0.0003	0.008 ± 0.0003	0.0088 ± 0.0004	0.0095 ± 0.0004	0.0103 ± 0.0004
[3], c1 = 3.19e-08	–	–	–	–	–	0.0069 ± 0.0003	0.0077 ± 0.0003	0.0084 ± 0.0003	0.0092 ± 0.0004	0.01 ± 0.0004

F[B-](F)(F)F.[Li+] [lithium fluoroborate] + O
molar conductivity [S·m2/mol], [3]
Conditions	303.2 K	308.2 K	313.2 K	318.2 K	323.2 K
c1 = 3e-09	0.0117 ± 0.0005	0.0126 ± 0.0005	0.0134 ± 0.0005	0.0144 ± 0.0006	0.0158 ± 0.0006
c1 = 1.11e-08	0.0111 ± 0.0004	0.0122 ± 0.0005	0.0129 ± 0.0005	0.0139 ± 0.0006	0.0155 ± 0.0006
c1 = 2.73e-08	0.0106 ± 0.0004	0.0119 ± 0.0005	0.0125 ± 0.0005	0.0135 ± 0.0005	0.0152 ± 0.0006
c1 = 4.81e-08	0.0103 ± 0.0004	0.0115 ± 0.0005	0.0121 ± 0.0005	0.0131 ± 0.0005	0.0149 ± 0.0006
c1 = 7.55e-08	0.01 ± 0.0004	0.0112 ± 0.0005	0.0118 ± 0.0005	0.0127 ± 0.0005	0.0145 ± 0.0006

From the NIST ThermoML archive (doi:10.1016/j.fluid.2008.07.006)
